Test results from patent US4472304A, “(Amido)N-substituted bleomycins, salts thereof and process for preparation thereof” (Nippon Kayaku Kabushiki Kaisha, priority 1981, dated 1984).

Assays:
pulmonary fibrosis = test: Pulmonary toxicity (pulmonary fibrosis) in mice; conditions: for Incidence: Number of mice with pulmonary fibrosis (%) / Incidence: Number of mice with pulmonary fibrosis / Grade: Total score of pulmonary fibrosis/total number of samples / Grade: Total score of pulmonary fibrosis/total number of samples (%): ICR mice, 5 mg/kg i.p. once a day for 10 days; for Incidence: Number of mice with pulmonary fibrosis (%) / Incidence: Number of mice with pulmonary fibrosis: 5 weeks observation; for Incidence: Number of mice with pulmonary fibrosis: mice with fibrosis/total; for Grade: Total score of pulmonary fibrosis/total number of samples / Grade: Total score of pulmonary fibrosis/total number of samples (%): points 0, 1, 2, 4, 6; for Ratio (by comparison with "Bleomycin Complex"): versus Bleomycin Complex
[1] = test system: Mycobacterium smegmatis ATCC 607; test: Antimicrobial activity against Mycobacterium smegmatis ATCC 607 (agar plate-cylinder); format: cell-based; conditions: standard bleomycin A2 (copper-free) assumed 1,000 mcg potency/mg
Method: (§1) 2. ANT[…] MYC[…] ATCC 607 AND BACILLUS SUBTILIS
(§2) The antimicrobial activity was tested against the captioned test organisms by the method of agar plate-cylinder. The activity was recorded on the assumption that the activity of standard sample of bleomycin A2 (copper-free form) is 1,000 mcg poteney/mg.

Bacillus subtilis = test: Antimicrobial activity against Bacillus subtilis (agar plate-cylinder); format: cell-based; conditions: standard bleomycin A2 (copper-free) assumed 1,000 mcg potency/mg
Method: as §1, §2

Cc1c(N)nc(C(CC(N)=O)NCC(N)C(=O)NC(C)C)nc1C(=O)NC(C(=O)NC(C)C(O)C(C)C(=O)NC(C(=O)NCCc1nc(-c2nc(C(=O)NCCCNC(C)c3ccccc3)cs2)cs1)C(C)O)C(OC1OC(CO)C(O)C(O)C1OC1OC(CO)C(O)C(OC(N)=O)C1O)c1cnc[nH]1 [Compound 21, 3-((S)-1'-phenylethyl)aminopropylamino-(amido)N--[isopropyl]-BLM]
Incidence: Number of mice with pulmonary fibrosis (%) (pulmonary fibrosis): 38% | Incidence: Number of mice with pulmonary fibrosis (pulmonary fibrosis): 3/8 | Grade: Total score of pulmonary fibrosis/total number of samples (pulmonary fibrosis): 5/24 | Grade: Total score of pulmonary fibrosis/total number of samples (%) (pulmonary fibrosis): 21% | Ratio (by comparison with "Bleomycin Complex") (pulmonary fibrosis): 0.27 | Antimicrobial potency of Cu-free compound against Mycobacterium smegmatis ATCC 607 [1]: 11998 mcg potency/mg | Antimicrobial potency of Cu-free compound against Bacillus subtilis (Bacillus subtilis): 962 mcg potency/mg

CCCCN(CCCC)CCCNC(=O)C(N)CNC(CC(N)=O)c1nc(N)c(C)c(C(=O)NC(C(=O)NC(C)C(O)C(C)C(=O)NC(C(=O)NCCc2nc(-c3nc(C(=O)NCCCNC(C)c4ccccc4)cs3)cs2)C(C)O)C(OC2OC(CO)C(O)C(O)C2OC2OC(CO)C(O)C(OC(N)=O)C2O)c2cnc[nH]2)n1 [Compound 34, 3-((S)-1'-phenylethylamino)propylamino-(amido)N--[3-(di-n-butylamino)propyl]-BLM]
Incidence: Number of mice with pulmonary fibrosis (%) (pulmonary fibrosis): 0% | Incidence: Number of mice with pulmonary fibrosis (pulmonary fibrosis): 0/8 | Grade: Total score of pulmonary fibrosis/total number of samples (pulmonary fibrosis): 0/24 | Grade: Total score of pulmonary fibrosis/total number of samples (%) (pulmonary fibrosis): 0% | Ratio (by comparison with "Bleomycin Complex") (pulmonary fibrosis): 0 | Antimicrobial potency of Cu-free compound against Mycobacterium smegmatis ATCC 607 [1]: 26023 mcg potency/mg | Antimicrobial potency of Cu-free compound against Bacillus subtilis (Bacillus subtilis): 2843 mcg potency/mg

Cc1c(N)nc(C(CC(N)=O)NCC(N)C(=O)NCCCNC(C)c2ccccc2)nc1C(=O)NC(C(=O)NC(C)C(O)C(C)C(=O)NC(C(=O)NCCc1nc(-c2nc(C(=O)NCCCNC(C)c3ccccc3)cs2)cs1)C(C)O)C(OC1OC(CO)C(O)C(O)C1OC1OC(CO)C(O)C(OC(N)=O)C1O)c1cnc[nH]1 [Compound 22, 3-((S)-1'-phenylethyl)aminopropylamino-(amido)N--[3-((S)-1'-phenylethyl)aminopropyl]-BLM]
Incidence: Number of mice with pulmonary fibrosis (%) (pulmonary fibrosis): 13% | Incidence: Number of mice with pulmonary fibrosis (pulmonary fibrosis): 1/8 | Grade: Total score of pulmonary fibrosis/total number of samples (pulmonary fibrosis): 1/21 | Grade: Total score of pulmonary fibrosis/total number of samples (%) (pulmonary fibrosis): 4% | Ratio (by comparison with "Bleomycin Complex") (pulmonary fibrosis): 0.05 | Antimicrobial potency of Cu-free compound against Mycobacterium smegmatis ATCC 607 [1]: 28030 mcg potency/mg | Antimicrobial potency of Cu-free compound against Bacillus subtilis (Bacillus subtilis): 2800 mcg potency/mg

CCCCCCCCNC(=O)C(N)CNC(CC(N)=O)c1nc(N)c(C)c(C(=O)NC(C(=O)NC(C)C(O)C(C)C(=O)NC(C(=O)NCCc2nc(-c3nc(C(=O)NCCC[N+](C)(CCCN(Cc4ccccc4)Cc4ccccc4)Cc4ccccc4)cs3)cs2)C(C)O)C(OC2OC(CO)C(O)C(O)C2OC2OC(CO)C(O)C(OC(N)=O)C2O)c2cnc[nH]2)n1 (stereo not drawn) [Compound 48, 3-{N--methyl-N--benzyl-N--[3-dibenzylamino)proplyamino}-propylamino-(amido)N--[octyl]-BLM]
Incidence: Number of mice with pulmonary fibrosis (%) (pulmonary fibrosis): 0% | Incidence: Number of mice with pulmonary fibrosis (pulmonary fibrosis): 0/8 | Grade: Total score of pulmonary fibrosis/total number of samples (pulmonary fibrosis): 0/24 | Grade: Total score of pulmonary fibrosis/total number of samples (%) (pulmonary fibrosis): 0% | Ratio (by comparison with "Bleomycin Complex") (pulmonary fibrosis): 0 | Antimicrobial potency of Cu-free compound against Mycobacterium smegmatis ATCC 607 [1]: 2580 mcg potency/mg | Antimicrobial potency of Cu-free compound against Bacillus subtilis (Bacillus subtilis): 130 mcg potency/mg

CC[N+](CC)(CCCNC(=O)c1csc(-c2csc(CCNC(=O)C(NC(=O)C(C)C(O)C(C)NC(=O)C(NC(=O)c3nc(C(CC(N)=O)NCC(N)C(=O)NCCCNC(C)c4ccccc4)nc(N)c3C)C(OC3OC(CO)C(O)C(O)C3OC3OC(CO)C(O)C(OC(N)=O)C3O)c3cnc[nH]3)C(C)O)n2)n1)CCCN(Cc1ccccc1)Cc1ccccc1 [Compound 55, 3-{N,N--diethyl-N--[3-(dibenzylamino)propyl]amino}-propyl-amino-(amido)N--[3-((S)-1'-phenylethyl)aminopropyl]-BLM]
Incidence: Number of mice with pulmonary fibrosis (%) (pulmonary fibrosis): 0% | Incidence: Number of mice with pulmonary fibrosis (pulmonary fibrosis): 0/9 | Grade: Total score of pulmonary fibrosis/total number of samples (pulmonary fibrosis): 0/27 | Grade: Total score of pulmonary fibrosis/total number of samples (%) (pulmonary fibrosis): 0% | Ratio (by comparison with "Bleomycin Complex") (pulmonary fibrosis): 0 | Antimicrobial potency of Cu-free compound against Mycobacterium smegmatis ATCC 607 [1]: 20840 mcg potency/mg | Antimicrobial potency of Cu-free compound against Bacillus subtilis (Bacillus subtilis): 2150 mcg potency/mg

CCCCCCCCNC(=O)C(N)CNC(CC(N)=O)c1nc(N)c(C)c(C(=O)NC(C(=O)NC(C)C(O)C(C)C(=O)NC(C(=O)NCCc2nc(-c3nc(C(=O)NCCCN(C)CCCNCc4ccc(C#N)cc4)cs3)cs2)C(C)O)C(OC2OC(CO)C(O)C(O)C2OC2OC(CO)C(O)C(OC(N)=O)C2O)c2cnc[nH]2)n1 (stereo not drawn) [Compound 62, 3-{N--methyl-N--[3-(p-cyanobenzylamino)propyl]amino}propylamino-(amido)N--[octyl]-BLM]
Incidence: Number of mice with pulmonary fibrosis (%) (pulmonary fibrosis): 0% | Incidence: Number of mice with pulmonary fibrosis (pulmonary fibrosis): 0/9 | Grade: Total score of pulmonary fibrosis/total number of samples (pulmonary fibrosis): 0/27 | Grade: Total score of pulmonary fibrosis/total number of samples (%) (pulmonary fibrosis): 0% | Ratio (by comparison with "Bleomycin Complex") (pulmonary fibrosis): 0 | Antimicrobial potency of Cu-free compound against Mycobacterium smegmatis ATCC 607 [1]: 49270 mcg potency/mg | Antimicrobial potency of Cu-free compound against Bacillus subtilis (Bacillus subtilis): 381 mcg potency/mg

Cc1c(N)nc(C(CC(N)=O)NCC(N)C(=O)NCCCNC(C)c2ccccc2)nc1C(=O)NC(C(=O)NC(C)C(O)C(C)C(=O)NC(C(=O)NCCc1nc(-c2nc(C(=O)NCCCN(C)CCCNCc3ccc(C#N)cc3)cs2)cs1)C(C)O)C(OC1OC(CO)C(O)C(O)C1OC1OC(CO)C(O)C(OC(N)=O)C1O)c1cnc[nH]1 [Compound 63, 3-{N--methyl-N--[3-(p-cyanobenzylamino)propyl]amino]propylamino-(amido)N--[(3-((S)-1'-phenylethylamino)propyl]-BLM]
Antimicrobial potency of Cu-free compound against Mycobacterium smegmatis ATCC 607 [1]: 21877 mcg potency/mg | Antimicrobial potency of Cu-free compound against Bacillus subtilis (Bacillus subtilis): 11056 mcg potency/mg

COc1ccc2[nH]cc(CCNC(=O)C(N)CNC(CC(N)=O)c3nc(N)c(C)c(C(=O)NC(C(=O)NC(C)C(O)C(C)C(=O)NC(C(=O)NCCc4nc(-c5nc(C(=O)NCCCNC(C)c6ccccc6)cs5)cs4)C(C)O)C(OC4OC(CO)C(O)C(O)C4OC4OC(CO)C(O)C(OC(N)=O)C4O)c4cnc[nH]4)n3)c2c1 [Compound 28, 3-((S)-1'-phenylethylamino)propylamino-(amido)N--[5-methyoxyindol-3-ylethyl]-BLM]
Antimicrobial potency of Cu-free compound against Mycobacterium smegmatis ATCC 607 [1]: 18650 mcg potency/mg | Antimicrobial potency of Cu-free compound against Bacillus subtilis (Bacillus subtilis): 586 mcg potency/mg

CCCCCCCCNC(=O)C(N)CNC(CC(N)=O)c1nc(N)c(C)c(C(=O)NC(C(=O)NC(C)C(O)C(C)C(=O)NC(C(=O)NCCc2nc(-c3nc(C(=O)NCCCNC(C)c4ccccc4)cs3)cs2)C(C)O)C(OC2OC(CO)C(O)C(O)C2OC2OC(CO)C(O)C(OC(N)=O)C2O)c2cnc[nH]2)n1 [Compound 27, 3-((S)-1'-phenylethylamino)propylamino-(amido)N--[octyl]-BLM]
Antimicrobial potency of Cu-free compound against Mycobacterium smegmatis ATCC 607 [1]: 45100 mcg potency/mg | Antimicrobial potency of Cu-free compound against Bacillus subtilis (Bacillus subtilis): 886 mcg potency/mg

Cc1c(N)nc(C(CC(N)=O)NCC(N)C(=O)NCc2nccs2)nc1C(=O)NC(C(=O)NC(C)C(O)C(C)C(=O)NC(C(=O)NCCc1nc(-c2nc(C(=O)NCCCCNC(=N)N)cs2)cs1)C(C)O)C(OC1OC(CO)C(O)C(O)C1OC1OC(CO)C(O)C(OC(N)=O)C1O)c1cnc[nH]1 (stereo not drawn) [Compound 20, 4-Guanidinobutylamino-(amido)N--[2-thiazolylmethyl]-BLM]
Antimicrobial potency of Cu-free compound against Mycobacterium smegmatis ATCC 607 [1]: 4870 mcg potency/mg | Antimicrobial potency of Cu-free compound against Bacillus subtilis (Bacillus subtilis): 900 mcg potency/mg

Cc1c(N)nc(C(CC(N)=O)NCC(N)C(=O)NCc2ccccc2)nc1C(=O)NC(C(=O)NC(C)C(O)C(C)C(=O)NC(C(=O)NCCc1nc(-c2nc(C(=O)NCCCCNC(=N)N)cs2)cs1)C(C)O)C(OC1OC(CO)C(O)C(O)C1OC1OC(CO)C(O)C(OC(N)=O)C1O)c1cnc[nH]1 (stereo not drawn) [Compound 14, 4-Guanidinobutylamino-(amido)N--[benzyl]-BLM]
Antimicrobial potency of Cu-free compound against Mycobacterium smegmatis ATCC 607 [1]: 28140 mcg potency/mg | Antimicrobial potency of Cu-free compound against Bacillus subtilis (Bacillus subtilis): 1650 mcg potency/mg

Cc1c(N)nc(C(CC(N)=O)NCC(N)C(=O)NCc2cccnc2)nc1C(=O)NC(C(=O)NC(C)C(O)C(C)C(=O)NC(C(=O)NCCc1nc(-c2nc(C(=O)NCCCCNC(=N)N)cs2)cs1)C(C)O)C(OC1OC(CO)C(O)C(O)C1OC1OC(CO)C(O)C(OC(N)=O)C1O)c1cnc[nH]1 (stereo not drawn) [Compound 19, 4-Guanidinobutylamino-(amido)N--[3-pyridylmethyl]-BLM]
Antimicrobial potency of Cu-free compound against Mycobacterium smegmatis ATCC 607 [1]: 5160 mcg potency/mg | Antimicrobial potency of Cu-free compound against Bacillus subtilis (Bacillus subtilis): 1010 mcg potency/mg
